Like-named read-outs stand apart in the source and are kept apart here.
Experiments:
purified human αvβ3 = target: T1, purified human αvβ3 (Homo sapiens, UniProt P05106+P06756); experiment: ELISA: competitive inhibition of biotinylated vitronectin binding to immobilized purified integrin αvβ3; conditions: for in vitro measured IC50 increase from IA-monomer: compared to IA-monomer
T1 construct: purchased Chemicon International, Temecula, Calif., USA
Method: In vitro Binding Assay. […] Purified integrin αvβ3 protein (Chemicon International, Temecula, Calif., USA) was applied to 96-well polystyrene microtiter plates at 0.1 μg/well. After overnight incubation at 4° C., the plates were washed, and then blocked with milk solution (KPL, Inc. Gaithersburg, Md., USA) at room temperature for 2 hr. The blocking buffer was removed, and the plates were inoculated in quadruplicate with bivalent IAs with a typical starting concentration of 125 nM. Serial dilutions were prepared in the 96-well plates using multichannel pipettes. Biotinylated vitronectin solution (0.1 μg/well) was added to each well as a standard competitor. The plates were incubated at room temperature for 3 h, washed, and the bound vitronectin was detected using NeutrAvidin-HRP conjugate at 0.01 μg/well (Pierce, Rockford, Ill., USA) and LumiGlo® chemiluminescent substrate system (KPL, Inc.). The luminescence was read using a FLUOstar™ OPTIMA Microplate Reader (Durham, N.C., USA). […] (Peptides International, Inc., Louisville, Ky., USA) was also tested using the same method as described above.
Briefly, purified integrin αvβ3 protein (Chemicon International, Temecula, Calif., USA) was applied to 96-well polystyrene microtiter plates for overnight incubation at 4° C. The plates were washed and then blocked with milk solution (KPL, Inc., Gaithersburg, Md., USA) and the plates were inoculated in quadruplicate with multivalent IAs at different concentrations. Biotinylated vitronectin solution was added to each well as a standard competitor. The plates were incubated at room temperature, washed, and the bound vitronectin detected using NeutrAvidin-HRP® conjugate (Pierce, Rockford, Ill., USA) and LumiGlo® chemiluminescent substrate system (KPL, Inc., Gaithersburg, Md., USA). The luminescence was read using a FLUOstar® OPTIMA Microplate Reader (Durham, N.C., USA).
In vitro Binding Affinity Assay. Purified integrin αvβ3 protein (Chemicon International, Temecula, Calif., USA) was applied to 96-well polystyrene microtiter plates at 1 μg/well. After overnight incubation at 4° C., the plates were washed and then blocked with milk solution (KPL, Inc., Gaithersburg, Md., USA) at room temperature for 2 hr. The blocking buffer was removed, and the plates were inoculated in quadruplicate with bivalent IAs with a typical starting concentration of 125 nM. Serial dilutions were prepared in the 96-well plates using multichannel pipettes. Biotinylated vitronectin solution (0.1 μg/well) was added to each well as a standard competitor.
The plates were incubated at room temperature for 3 hr, washed, and the bound vitronectin was detected using NeutrAvidin-HRP conjugate at 0.01 μg/well (Pierce, Rockford, Ill., USA) and LumiGlo® chemiluminescent substrate system (KPL, Inc.). The luminescence was read using a FLUOstar OPTIMA Microplate Reader (Durham, N.C., USA). […] It measured competitive binding of the integrin antagonist and biotinylated human vitronectin for the immobilized receptor αvβ3.

HUVECs = experiment: Anti-angiogenic in vitro assay: endothelial tube formation on Matrigel; format: cell-based, human; conditions: 10 μg/mL, 6 hr
Method: The impact of IA derivatives on capillary-like tube formation by HUVECs was investigated. In vitro endothelial tube formation was performed as described in the literature (Park et al., 2007). Growth factor reduced Matrigel® (100 μL, BD Bioscience, San Jose, Calif., USA) was added to each well of a 96-well plate and allowed to polymerize for 30 min at 37° C. HUVECs were suspended in medium at the density of 4×10^5 cells per milliliter, and 100 μL of the cell suspension was added to each Matrigel-coated well in the presence of IA monomer, dimer and trimer. Cells were incubated at 37° C. for 6 hr, and then photographed at 20× magnification using a Micromaster® phase contrast microscope (Fisher Scientific, Pittsburgh, Pa., USA). The branch points were counted and averaged.

[1] = Example 1 bivalent IA study, FIG. 4, read-out: IC50 of vitronectin binding to αvβ3 (ELISA)
[2] = monomer/dimer/trimer study, FIG. 28, Table 5, read-out: IC50 (nM) ELISA

SMILES	IC50 (purified human αvβ3; [1]) [nM]	IC50 (purified human αvβ3; Example 2, PEG-linked ligands, averages of at least three determinations, read-out: In vitro EL1SA IC50) [nM]	IC50 (purified human αvβ3; [2]) [nM]	number of tube branches (control group 100%) (HUVECs) [%]	integrin αvβ3 binding affinity compared to monomer (purified human αvβ3)	in vitro measured IC50 increase from IA-monomer (purified human αvβ3) [fold]	improvement in receptor affinity (IC50) over c-[RGDfV] (purified human αvβ3; compared to c-[RGDfV]) [fold]	increase in IC50 from the dimer to trimer (purified human αvβ3; compared to IA dimer) [fold]
NCCS(=O)(=O)N[C@@H](CNC(=O)c1ccc(OCCNC2=NCCCN2)cc1)C(=O)O [IA, 4-[2-(3,4,5,6-tetrahydropyrimidine-2-ylamino)ethyloxy]benzoyl-2-(S)-aminoethylsulfonyl-amino-β-alanine]	22.3 ± 4.51	22.3	11	86.6±3.4				
NC(CCCCCC(=O)NCCS(=O)(=O)N[C@@H](CNC(=O)c1ccc(OCCNC2=NCCCN2)cc1)C(=O)O)C(=O)NCCS(=O)(=O)N[C@@H](CNC(=O)c1ccc(OCCNC2=NCCCN2)cc1)C(=O)O (some centres unmarked) [bivalent IA]	0.4 ± 0.11		0.44	68.3±2.6	significantly higher integrin avb3-binding affinity and specificity than IA monomer	28	10	
O=C(NCCS(=O)(=O)N[C@@H](CNC(=O)c1ccc(OCCNC2=NCCCN2)cc1)C(=O)O)OCCN(CCOC(=O)NCCS(=O)(=O)N[C@@H](CNC(=O)c1ccc(OCCNC2=NCCCN2)cc1)C(=O)O)CCOC(=O)NCCS(=O)(=O)N[C@@H](CNC(=O)c1ccc(OCCNC2=NCCCN2)cc1)C(=O)O [IA trimer]			0.22	35.6±1.0		56		2
